The values below come from patent publication US20260125379A1, “PRODRUG OF JAK KINASE INHIBITOR” (E-nitiate Biopharmaceuticals (Hangzhou) Co., Ltd, priority 2022, published 2026).

The target of data set [1] is JAK1 (Homo sapiens, UniProt P23458). Nature of the data set: JAK1 kinase inhibition assay (ULight-JAK-1 substrate, Eu-labeled anti-phosphotyrosine antibody). The format is biochemical. The conditions noted are these: JAK1 10 nM, substrate 50 nM, ATP 40 μM, 2 hours at room temperature. Here is the method: (§1) Example A: Activity Detection of JAK Kinase Small Molecule Inhibitors
(§2) Kinase reaction buffer was prepared with the following components: 50 mM HEPES, pH 7.5, 1 mM EGTA, 10 mM MgCl2, 2 mM DTT, 0.01% Tween20.
(§3) Detection buffer was prepared by diluting 10× detection buffer to IX with deionized water in a ratio of 9:1.
(§4) JAK kinase was diluted with kinase reaction buffer to 4× final concentration (JAK1: 40 nM, JAK2: 0.5 nM).
(§5) ULight™-JAK-1 (Tyr1023) substrate was diluted with kinase reaction buffer to 200 nM (final concentration: 50 nM).
(§6) ATP was diluted with kinase reaction buffer to 4× final concentration (JAK1: 160 μM, JAK2: 40 μM).
(§7) Compound to be tested was dissolved with DMSO to obtain a 10 mM storage solution, which was diluted to desired concentrations by a 3-fold gradient; for each compound 10 concentration points were set, and the final concentration of the compound to be tested ranges from 10 μM to 0.5 nM.
(§8) EDTA was dissolved with 1× detection buffer to 40 mM (EDTA final concentration: 10 mM).
(§9) Eu-labeled detection antibody (anti-phosphotyrosine (PT66)) was diluted with 1× detection buffer to 8 nM (final antibody concentration: 2 nM).
(§10) (1) To a 384-well plate, 2.5 μL 4× kinase solution and 2.5 μL 4× test compound solution with different concentrations that have been diluted were added successively, each concentration was set in duplicate, and an enzyme solution blank control and a negative control (DMSO group) were also set.
(§11) (2) The 384-well plate was shaken to mix enzyme and compound well, and then centrifuged at 1000 rpm for 1 minute, and incubated at room temperature for 60 minutes.
(§12) (3) 2.5 μL 4× substrate solution was added to the 384-well plate and centrifuged at 1000 rpm for 1 minute.
(§13) (4) 2.5 μL 4× ATP solution was added to the 384-well plate and centrifuged at 1000 rpm for 1 minute, and then enzyme reaction was initiated.
(§14) (5) For JAK1 the reaction was carried out at room temperature for 2 hours, and for JAK2 the reaction was carried out at room temperature for 1 hour.
(6) For the JAK1 reaction, the final concentrations of components are as follows: JAK1: 10 nM, substrate: 50 nM, ATP: 40 μM; and the final concentration of the tested compounds ranges from 10μ M to 0.5 nM.
(§15) (7) After the enzyme reaction was completed, 5 μL 4× enzyme reaction termination solution was added to each well of the 384-well plate, and then centrifuged at 1000 rpm for 1 minute and incubated at room temperature for 5 minutes.
(§16) (8) 5 μL 4× detection antibody solution (the final concentration of detection antibody is 2 nM) was added to each well of the 384-well plate, and then centrifuged at 1000 rpm for 1 minute and incubated at room temperature for 1 hour.
(§17) (9) At the antibody incubation was completed, signal value of each well was measured on a Envision plate reader.
(§18) (1) The percentage inhibition rate corresponding to each concentration of the tested compound was calculated on the basis that the blank control of enzyme solution corresponds to 100% and the negative control (DMSO group) corresponds to 0%.
(§19) (2) A nonlinear regression analysis of the logarithm of the concentration of the detected compound and the corresponding percentage inhibition rate was performed in GraphPad Prism software to obtain the half-inhibiting concentration (IC50) of the tested compound.

For data set [2], the target named is JAK2 (Homo sapiens, UniProt O60674). Nature of the data set: JAK2 kinase inhibition assay (ULight-JAK-1 substrate, Eu-labeled anti-phosphotyrosine antibody). The format is biochemical. The conditions noted are these: JAK2 0.125 nM, substrate 50 nM, ATP 10 μM, 1 hour at room temperature. Here is the method:
as §1, §2, §3, §4, §5, §6, §7, §8, §9, §10, §11, §12, §13, §14
For the JAK2 reaction, the final concentrations of component are as follows: JAK2: 0.125 nM, substrate: 50 nM, ATP: 10 μM; and the final concentration of the tested compound ranges from 10 μM to 0.5 nM.
as §15, §16, §17, §18, §19

Data set [3] can be described thus: Fecal excretion (cumulative recovery) in rats after single gavage. The conditions noted are these: feces, SD rats, administration group Compound A3 40 mg/kg by gavage. The format is in vivo. Here is the method:
(§20) Compounds A1, A2, A3, B3, B6 and B3 were administered once to SD rats by gavage. The concentrations of medicaments and metabolites thereof in plasma were collected and measured at different time points, and the pharmacokinetic parameters of each compound were calculated to study the pharmacokinetic characteristics of the compounds in plasma of SD rats. Fecal samples at 8 and 24 hours were collected simultaneously, and the concentrations of prodrugs and degraded products were detected to investigate the excretion recovery rate.
(§21) Rats were grouped in groups of 3, and all SD rats were fasted overnight (12 hours or more) the day before the experiment. On the day of the experiment, after weighing the body weight, the rats were administrated once with compound A1, A2, A3, B3, B6, and B3 by gavage respectively. SD rats were able to resume eating 4 hours after administration and were able to drink freely during the experiment. 0.20 mL of blood was collected from the jugular vein before administration and at 0.5, 1, 2, 4, 8, 12, and 24 hours after administration, respectively, and was placed in EDTA-K2 anticoagulation tube. All whole blood samples were centrifuged at 1500 g to 1600 g for 10 minutes within half an hour after collection to separate plasma, which was stored in a refrigerator at a temperature of between −90° C. and −60° C. for sample analysis. All the feces from the metabolic cage chassis were collected at 24 h after administration and weighed accurately. The required volume of homogenate liquid (aqueous solution containing 20% methanol) was added at a weight/volume ratio of 1:10, and the resultant was homogenized and analyzed.

Data set [4] in a line: Plasma pharmacokinetics in rats after single gavage. The format is in vivo. The conditions noted are these: SD rats. As for the experimental part: as §20, §21
The nature of data set [5]: Pharmacokinetics in rats in vivo: A13 in plasma and colon tissue after equimolar A3 or A13. The conditions noted are these: SD rats, A3 30 mg/kg vs A13 15 mg/kg (equal molar) by gavage, FIG. 1. As for the experimental part:
Compounds A3 and A13 were administered once to SD rats by gavage in an equal molar amount relative to the body weight of rats. The concentration of the medicaments and metabolites thereof in plasma and colon tissues were collected and measured at different time points, and the pharmacokinetic parameters of the compounds were calculated to compare the pharmacokinetic characteristics of the prodrug and the active metabolite in SD rats in vivo.
Rats were grouped in groups of 27, and all SD rats were fasted overnight (12 hours or more) the day before the experiment. On the day of the experiment, after weighing the body weight, the compounds A3 (30 mg/kg) and A13 (15 mg/kg) were administered once by gavage respectively. SD rats were able to resume eating after 4 hours of administration and were able to drink freely during the experiment. Plasma and colonic tissue were collected at 0.5, 1, 2, 4, 6, 8, 12, 24 and 48 hours after the administration to detect the concentration of A13 in the plasma and colon tissue homogenate liquid.

Sequence of JAK1 (P23458 whole entry, species assumed): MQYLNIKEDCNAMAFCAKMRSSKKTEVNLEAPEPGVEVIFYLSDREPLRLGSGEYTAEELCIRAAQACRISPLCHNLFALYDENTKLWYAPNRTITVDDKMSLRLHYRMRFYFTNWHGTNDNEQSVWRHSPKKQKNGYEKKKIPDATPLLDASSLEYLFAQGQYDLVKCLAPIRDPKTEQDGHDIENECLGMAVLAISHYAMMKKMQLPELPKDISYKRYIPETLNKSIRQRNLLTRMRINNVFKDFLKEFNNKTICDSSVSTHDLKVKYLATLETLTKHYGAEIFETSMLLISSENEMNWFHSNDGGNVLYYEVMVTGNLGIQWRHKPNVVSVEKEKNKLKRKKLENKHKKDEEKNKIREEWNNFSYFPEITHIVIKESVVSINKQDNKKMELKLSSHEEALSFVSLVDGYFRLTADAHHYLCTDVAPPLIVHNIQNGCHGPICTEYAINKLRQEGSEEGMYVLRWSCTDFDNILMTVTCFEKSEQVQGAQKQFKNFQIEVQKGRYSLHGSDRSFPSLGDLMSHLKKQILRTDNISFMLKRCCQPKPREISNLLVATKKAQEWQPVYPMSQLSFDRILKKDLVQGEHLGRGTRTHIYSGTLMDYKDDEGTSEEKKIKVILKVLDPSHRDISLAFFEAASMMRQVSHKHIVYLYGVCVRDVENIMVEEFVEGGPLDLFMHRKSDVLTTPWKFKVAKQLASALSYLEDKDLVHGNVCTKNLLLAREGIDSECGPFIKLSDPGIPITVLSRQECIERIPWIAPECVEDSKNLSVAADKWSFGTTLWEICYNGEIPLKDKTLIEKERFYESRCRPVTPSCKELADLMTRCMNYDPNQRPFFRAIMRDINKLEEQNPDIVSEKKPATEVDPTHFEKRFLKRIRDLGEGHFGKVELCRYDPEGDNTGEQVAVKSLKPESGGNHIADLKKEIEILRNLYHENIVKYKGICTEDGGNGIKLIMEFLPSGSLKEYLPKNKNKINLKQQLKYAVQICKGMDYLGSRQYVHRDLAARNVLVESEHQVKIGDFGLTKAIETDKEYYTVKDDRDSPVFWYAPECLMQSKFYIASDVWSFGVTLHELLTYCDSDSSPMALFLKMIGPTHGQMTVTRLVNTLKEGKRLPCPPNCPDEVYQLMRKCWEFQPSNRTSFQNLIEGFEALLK
Sequence of JAK2 (O60674 whole entry, species assumed): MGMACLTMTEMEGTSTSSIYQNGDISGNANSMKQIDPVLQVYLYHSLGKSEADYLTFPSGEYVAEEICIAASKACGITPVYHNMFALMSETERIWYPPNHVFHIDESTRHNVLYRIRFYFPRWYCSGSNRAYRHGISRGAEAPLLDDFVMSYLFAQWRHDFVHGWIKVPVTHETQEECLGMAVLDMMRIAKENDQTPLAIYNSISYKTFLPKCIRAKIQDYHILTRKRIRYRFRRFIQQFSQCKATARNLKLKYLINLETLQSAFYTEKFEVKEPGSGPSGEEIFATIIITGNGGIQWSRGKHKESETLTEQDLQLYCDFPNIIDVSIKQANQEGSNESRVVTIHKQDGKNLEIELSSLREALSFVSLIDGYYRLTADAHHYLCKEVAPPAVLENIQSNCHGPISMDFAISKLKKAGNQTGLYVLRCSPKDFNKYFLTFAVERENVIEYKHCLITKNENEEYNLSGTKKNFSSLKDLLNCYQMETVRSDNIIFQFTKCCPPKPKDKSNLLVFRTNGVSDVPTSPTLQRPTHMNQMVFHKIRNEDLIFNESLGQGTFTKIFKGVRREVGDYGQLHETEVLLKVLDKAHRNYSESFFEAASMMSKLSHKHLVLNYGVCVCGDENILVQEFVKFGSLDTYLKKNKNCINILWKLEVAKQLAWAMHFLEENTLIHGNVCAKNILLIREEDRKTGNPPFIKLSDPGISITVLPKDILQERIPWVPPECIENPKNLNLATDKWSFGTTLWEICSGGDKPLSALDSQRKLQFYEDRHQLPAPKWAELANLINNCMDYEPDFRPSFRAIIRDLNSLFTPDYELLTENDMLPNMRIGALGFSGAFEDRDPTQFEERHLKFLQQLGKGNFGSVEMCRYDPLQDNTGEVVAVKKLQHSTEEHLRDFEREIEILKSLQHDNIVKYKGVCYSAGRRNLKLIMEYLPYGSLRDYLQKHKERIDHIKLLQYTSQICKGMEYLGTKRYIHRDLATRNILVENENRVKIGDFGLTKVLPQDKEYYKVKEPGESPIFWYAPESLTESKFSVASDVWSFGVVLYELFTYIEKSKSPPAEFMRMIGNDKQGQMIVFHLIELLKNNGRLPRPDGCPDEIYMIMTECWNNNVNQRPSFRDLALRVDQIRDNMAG

For orientation: IC50 means the concentration needed to halve the response being measured. High values mean a need for much substance, low ones inhibition by little substance. The Cmax is the peak of the concentration-time curve. A word on the Tmax: it is the time from dosing to the highest level. Regarding `C[C@@H](OC(=O)C(C)(C)Oc1ccccc1/N=N/c1ccc(O)c(C(=O)O)c1)c1nc2cnc3[nH]ccc3c2n1N1CCC(CC#N)CC1` [Compound A3, (R,E)-5-((2-((1-(1-(1-(4-cyanomethylpiperidin-1-yl)-1,6-dihydroimidazo[4,5-d]pyrrolo[2,3-b]pyridin-2-yl)ethoxy)-2-methyl-1-oxopropan-2-yl)oxy)phenyl)diazenyl)-2-hydroxybenzoic acid], the values for the IC50 in data set [1] and in data set [2] were 7.04 nM and 102 nM, respectively. Besides, the “Cumulative recovery rate at 24 h (%)” value in data set [3] stood at 0.78%. Also, the “presence of the prodrug in plasma (in words)” value in data set [4] (after gavage of the prodrug itself) was “absent or rarely present in plasma”. Moreover, the “AUC0-t” value in data set [4] (plasma, administration group Compound A3 40 mg/kg by gavage) is 8.92 ng·h/g. Further, the Cmax in data set [4] (rat, po, plasma, administration group Compound A3 40 mg/kg by gavage, read-out: Cmax) turned out to be 2.08 ng/mL. Besides, the Tmax in data set [4] (rat, po, plasma, administration group Compound A3 40 mg/kg by gavage, read-out: Tmax) amounted to 4 h. Besides, in data set [5] (colon tissue 0.5-48 hours), the “amount (AUC) of active metabolite A13 in the colonic tissue after prodrug A3 compared with compound A13” value was “more in the colonic tissue”. Further, in data set [5] (plasma 0.5-48 hours), the “amount (AUC) of active metabolite A13 in the blood after prodrug A3 compared with compound A13” value was “less in the blood”.
